The assay concerns CEM cells HIV-1 protection, formazan growth assay. Put plainly: NCI AIDS Antiviral Assay. Particulars: for pIC50: measured here: growth of uninfected CEM cells. A digest of the protocol:
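Soluble formazan readout of cell growth; CEM cells ± HIV-1; 5 drug concs. ≥50% protection → retest; ≥50% again = moderately active; reproducible 100% = confirmed active.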

pEC50, pIC50: −log10 of the molar value. Activity calls are given as the source filed them.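 Rule for the calls: active = compounds giving half or more protection of infected cells from virus-caused growth loss, again on retest; inactive = the rest.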

We go through 73 compounds from PubChem BioAssay AID179 (DTP/NCI, 2004).

A word on the pEC50: it is the EC50 on a negative log10 scale, so that one unit is a factor of ten. As a reminder, the pIC50 is −log10 of the IC50, conventionally taken in molar units. The low end stands for a high IC50, the high end for a low IC50. Turning to `CC(=O)NS(=O)(=O)c1ccc(NC(=O)c2ccccc2SSc2ccccc2[N+](=O)[O-])cc1`, the pEC50 was 5.05 and the pIC50 is 4.51. Regarding `C(/Cc1ccc2c(c1)OCO2)=N\NC1=NCCCN1`, the pEC50 was less than 3.70 and the pIC50 is 4.41. With `CNNc1ncnc2c1cnn2C`, the pEC50 was less than 3.10 and the negative-log IC50 (pIC50) was less than 3.10.

On to `CCOP(=O)(OCC)C(C#N)Cc1ccco1` (stereo not given), for which the pEC50 was 4.38 and the negative-log IC50 (pIC50) is less than 3.70. In the case of `COc1cc(CC(=O)O)c(C(=O)c2ccc(C#N)cc2)cc1OC`, the pEC50 is less than 3.70 and the negative-log IC50 (pIC50) was less than 3.70. Consider `COc1ccc(C2SC(N)=Nc3c2c(C)nn3C(=O)c2ccncc2)cc1` (stereo not given), for which the pEC50 is less than 3.70 and the pIC50 was 3.96.

In the case of `O=C1CC(c2ccc(O)c(O)c2)c2cc(O)c3c(c2O1)C[C@@H](O)[C@@H](c1ccc(O)c(O)c1)O3` (stereo not given in full), the pEC50 is less than 3.70 and the negative-log IC50 (pIC50) is 4.80. For `COCCOCCOCCOCCOCCOCCOCCOCCOCCOCCOCCOCCOCCOCCOCCOCCOCC(=O)N(CCn1cnc2nc(NC(=O)c3ccccc3)[nH]c(=O)c21)CCn1cnc2nc(NC(=O)c3ccccc3)[nH]c(=O)c21`, in that order: 5.88 and 4.32. Turning to `S=C(Nc1ccc2cn[nH]c2c1)Nc1ccc2cn[nH]c2c1`, the pEC50 is less than 3.51 and the pIC50 was 3.89. For `CCOC(OCC)c1ccc(C(F)(F)F)cc1.[C-]#[O+].[C-]#[O+].[C-]#[O+].[Cr]`, the pEC50 was less than 4.70 and the negative-log IC50 (pIC50) is 5.52. For `CC1(C)CCc2cc3c(cc2O1)OCC1c2cc4c(cc2OC31)OCO4` (stereo not given), the outcome was inactive. As to `CCOC(=O)/C=C/c1ccccc1Cl`, the pEC50 was less than 4.47 and the negative-log IC50 (pIC50) was less than 4.47. Turning to `CN(C)CCCCN1c2ccccc2Sc2cc(N=[N+]=[N-])ccc21`, the pEC50 is less than 3.70 and the pIC50 was 5.61. `CN(C)c1ccc(/C=C/c2ccnc3c2ccc2ccccc23)cc1`: the pEC50 is less than 4.65 and the pIC50 was 4.87.

For `COc1ccc2c3c(coc13)C(CCC(=O)O)CC2` (stereo not given), the result was inactive. As for `O=C(O)C1C(C(=O)O)C2C=CC1C21CCCC1` (stereo not given), the pEC50 is less than 3.42 and the pIC50 is less than 3.42. Consider `C=C[C@]1(C)CC[C@]2(C)C(CC[C@@]3(C)C2C[C@H](O)[C@H](O)[C@@]3(C)O)C1` (stereo not given in full), for which the pEC50 is less than 3.70 and the negative logarithm of the IC50 (pIC50) is 3.85.

Turning to `CC(NC(=O)OCc1ccccc1)NC(=O)C(CC(=O)OC(C)(C)C)NC(=O)OC(C)(C)C` (stereo not given), the pEC50 was less than 3.70 and the negative logarithm of the IC50 (pIC50) is less than 3.70. On to `NC(=O)C1(c2ccccc2)Nc2ccccc2S1` (stereo not given), for which the pEC50 is less than 3.01 and the pIC50 is 3.99. Take `COc1ccc(C(=O)/C=C/c2ccc(OCC(=O)O)cc2)cc1`: the pEC50 was less than 3.70 and the negative-log IC50 (pIC50) was 4.16. Regarding `CN1C(c2ccccc2)=CC(=O)C(O)=C(c2ccccc2)S1(=O)=O`, the pEC50 was less than 3.70 and the pIC50 is less than 3.70. For `Nc1ccc(CCCCc2ccc(S(=O)(=O)F)cc2Cl)c(Cl)c1`, the pEC50 is less than 3.70 and the negative-log IC50 (pIC50) is 4.66. Take `COc1cc2c(cc1OC)NCC1COc3c(ccc(OC)c3OC)C1=N2` (stereo not given): the pEC50 is less than 3.70 and the pIC50 is 3.93. For the compound `CCOC(=O)Nn1c(C)nnc1CC#N`, the pEC50 was less than 3.70 and the negative-log IC50 (pIC50) was less than 3.70. Regarding `CCCCCCCCCCCC(=O)OCCOCCOCCOCCOCCOC(=O)CCCCCCCCCCC`, the result was inactive. Regarding `O=C1NC(=S)NNC12c1ccccc1-c1ccccc12`, the pEC50 is less than 3.70 and the negative logarithm of the IC50 (pIC50) is 4.47. For `O=C(Nn1c(-c2ccccc2)nc2ccccc2c1=O)c1ccccn1` the same measures were less than 3.70 and 3.91. As for `O=C1OCC/C1=C\c1ccc2c(c1)OCO2`, the pEC50 was less than 4.34 and the pIC50 was less than 4.34. On to `O=[As](O)(O)c1ccc(-c2ccc([As](=O)(O)O)cc2)cc1`, for which the pEC50 is less than 3.70 and the pIC50 was less than 3.70. Take `NC(Cc1ccc(B(O)O)cc1)C(=O)NC(CO)CO` (stereo not given): the pEC50 is less than 3.70 and the pIC50 is less than 3.70. For `Oc1[nH]c2ccccc2c1N=NC(=S)N1CCCCCC1`, the pEC50 was less than 3.70 and the pIC50 was 5.88. For `CN(C)P1(=O)NCC(C)(C)CO1` (stereo not given), the pEC50 was less than 2.89 and the negative-log IC50 (pIC50) is less than 2.89. For the compound `CCCCCCCCCCOCCC(=O)OCC1OC(n2cc(C)c(=O)[nH]c2=O)CC1N=[N+]=[N-]` (stereo not given), the outcome was active and the negative-log IC50 (pIC50) is 4.47. With `CC1=C(C(=O)NCc2ccccc2)C(c2ccccc2C)C(C(=O)NCc2ccccc2)=C(C)N1`, the pEC50 was less than 4.67 and the pIC50 was less than 4.67. Consider `O=C(/C=C/c1ccccc1)CC(=O)/C=C/c1ccccc1`, for which the pEC50 was less than 3.70 and the pIC50 is 4.51. With `C=C[C@]1(C)CC(=O)C(C(C)C=O)[C@]12C(=O)Oc1cccc(C)c1C2=O` (stereo not given in full), the pEC50 is less than 3.70 and the negative-log IC50 (pIC50) was 4.87. For `OCC1NC(COC2OC(CO)C(O)C(O)C2O)C(O)C(O)C1O` (stereo not given), the result was inactive. With `CCCC(=O)[O-].CCCC(=O)[O-].N.N.N.N.[Co+3].[O-][Cl+3]([O-])([O-])[O-]`, the result was inactive.

In the case of `CSc1nc(NC(=O)O)c(N(C(C)=O)C(=O)O)c(=O)n1C`, the pEC50 is less than 3.10 and the pIC50 is less than 3.10. As for `O=C(n1c(=O)n(-c2ccc([N+](=O)[O-])cc2)c(=O)n1C(=O)C(Cl)(Cl)Cl)C(Cl)(Cl)Cl`, the pEC50 was less than 3.70 and the pIC50 was less than 3.70. For the compound `C=CCN1C(=O)C(c2ccccc2)(c2ccccc2)NC1=S`, the pEC50 is less than 4.07 and the pIC50 was less than 4.07. On to `Oc1ccccc1/C=N/NC(=S)Nc1cccc2cc3ccccc3nc12`, for which the pEC50 was less than 3.70 and the pIC50 was 6.24. As to `CCCOc1ccc2[nH]cc(C(COC)c3c[nH]c4ccc(OCCC)cc34)c2c1`, the pEC50 is less than 3.70 and the pIC50 is 4.89. Consider `CCNC(=O)CCN(C(=O)O)S(=O)(=O)c1ccc(NC(=O)c2ccccc2)cc1`, for which the pEC50 was less than 3.22 and the negative logarithm of the IC50 (pIC50) is less than 3.22. As to `O=C(/C=C/c1ccc(/C=C/C(=O)c2ccc(O)cc2)cc1)c1ccc(O)cc1`, the pEC50 is less than 3.70 and the negative-log IC50 (pIC50) was 4.57. Consider `CC(C)c1ccccc1NC(=O)CCc1n[nH]c(=S)o1`, for which the pEC50 was less than 3.49 and the pIC50 was less than 3.49. As for `Cc1nn(-c2ccc([N+](=O)[O-])cc2)c2c1C(C)(C)C(C#N)=C(N)O2`, the pEC50 was less than 3.70 and the pIC50 was less than 3.70. In the case of `Cc1ccc2c(c1C)C(=O)/C(=C/c1cccc(C)c1C(=O)O)C2`, the result was inactive. As to `CCSC1=[N+](SCC)CCCS1`, the pEC50 was less than 3.15 and the negative logarithm of the IC50 (pIC50) is 3.57. For the compound `COC(=O)C(C)(C)C(OP(=S)(N(C)C)N(C)C)=C(C)C`, the pEC50 was less than 4.65 and the pIC50 was less than 4.65. `COC(=O)c1ccc(C)cc1C1CN=NC12Cc1c(C)cccc1C2=O` (stereo not given): the pEC50 was less than 3.70 and the pIC50 was less than 3.70.

Consider `N#C/C=C/c1cccc(Br)c1`, for which the pEC50 was less than 4.32 and the negative-log IC50 (pIC50) was less than 4.32. As for `C=CCN1CN(c2ccccc2)C2(CCN(CCCC3(c4ccc(F)cc4)OCCO3)CC2)C1=O`, the pEC50 was less than 3.70 and the negative-log IC50 (pIC50) was 4.94.

Turning to `C/C(=N\OCC(O)CNC(C)C)c1ccc2c(c1)NC(=O)CS2` (stereo not given), the outcome was inactive. With `COc1ccc2c(c1)c1c(n2CCN2CCOCC2)-c2ccccc2CC1`, the outcome was inactive.

For `N#CN1CCC=C(c2cc3ccccc3[nH]2)C1`, the pEC50 was less than 3.94 and the pIC50 was 4.22. As for `CCCCCCCC(=O)OCC1OC(n2cc(F)c(=O)[nH]c2=O)C(N)C(OC(=O)CCCCCCC)C1O` (stereo not given), the pEC50 is less than 4.32 and the pIC50 was 4.41.

With `O=C1c2ccccc2C(=O)N1CCN(CCN1C(=O)c2ccccc2C1=O)Cn1cccn1`, the result was inactive.

As for `CC(=O)C1C(=O)C(=O)N(c2ccc(Br)cc2)C1=O` (stereo not given), the outcome was inactive. Take `CCOC(=O)/C=C\[C@H]1OC(C)(C)O[C@H]1[C@H](O)[C@H]1COC(C)(C)O1`: the pEC50 is less than 4.70 and the pIC50 is 4.95. In the case of `O=S(=O)(O)c1ccc(O)c(N=Nc2ccc(S(=O)(=O)c3ccc(N=Nc4cc(S(=O)(=O)O)ccc4O)cc3)cc2)c1`, the pEC50 is less than 4.00 and the pIC50 is less than 4.00. On to `COc1cc(C)c2c(c1)C=C1C(=O)C(=O)C(C(C)C)=C(O)C1=CC2`, for which the outcome was inactive.

Regarding `Nc1cc(Nc2ccc(Cl)[nH]c2=S)nc(N)n1`, the pEC50 is less than 3.73 and the pIC50 was 5.24.

As to `COc1cc2oc(-c3ccc(O)cc3)c(OC3OC(C)C(O)C(O)C3O)c(=O)c2c(O)c1OC` (stereo not given), the outcome was inactive.

Regarding `O=c1c2ccc3cccc4c(=O)cc(c5ccccc15)-c2c34`, the result was inactive. On to `O=C1[C@H](O)[C@@H]2CCC[C@@]23CCCN13`, for which the pEC50 is less than 3.70 and the pIC50 was less than 3.70. As for `COC1/C=C\OC2(C)Oc3c(C)c(O)c4c(O)c(c(/C=N\N(C)C)c(O)c4c3C2=O)NC(=O)/C(C)=C\C=C/C(C)C(O)C(C)C(O)C(C)C(OC(C)=O)C1C` (stereo not given), the pEC50 was less than 3.70 and the negative logarithm of the IC50 (pIC50) is 4.89.

With `C(#CP(c1ccccc1)c1ccccc1)P(C#CP(c1ccccc1)c1ccccc1)c1ccccc1`, the outcome was inactive. Turning to `Nc1ccn(C2CC(O)C(COP(=O)(O)OC3C(COP(=O)(O)O)OCC3n3cnc4c(N)ncnc43)O2)c(=O)n1` (stereo not given), the pEC50 is less than 3.70 and the pIC50 was less than 3.70. For the compound `O=C(CC(=O)Nc1ccccc1O)Nc1ccccc1O`, the pEC50 was less than 3.35 and the negative logarithm of the IC50 (pIC50) was 4.65. `CN(C)c1ccc(C(=CC=C2C(=O)c3ccccc3C2=O)c2ccc(N(C)C)cc2)cc1`: the pEC50 is less than 4.95 and the pIC50 is less than 4.95. Consider `Nc1nsc2nc3ccccc3cc12`, for which the outcome was inactive. Take `Cc1cc(N(CCC#N)CCC#N)ccc1/C=C1N=C(/C=C/c2ccccc2)N(c2ccc(S(N)(=O)=O)cc2)C\1=O`: the outcome was inactive.
